From PubChem BioAssay (NCI)
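These data come from cells grown in 96-well plates and exposed to compound for 48 hours at five concentrations. TGI marks complete inhibition of growth.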

What was measured:
Test in all cases: growth of human tumour cells (NCI), 48 h
T-47D breast = test system: T-47D breast
CCRF-CEM leukemia = test system: CCRF-CEM leukemia
IGROV1 ovarian = test system: IGROV1 ovarian
MDA-N = test system: MDA-N
CAKI-1 renal = test system: CAKI-1 renal
A498 renal = test system: A498 renal
HS 578T breast = test system: HS 578T breast
M14 melanoma = test system: M14 melanoma
TK-10 renal = test system: TK-10 renal
MCF7 breast = test system: MCF7 breast
786-0 renal = test system: 786-0 renal

SMILES | TGI (T-47D breast) | TGI (CCRF-CEM leukemia) | TGI (IGROV1 ovarian) | TGI (MDA-N) | TGI (CAKI-1 renal) | TGI (A498 renal) | TGI (HS 578T breast) | TGI (M14 melanoma) | TGI (TK-10 renal) | TGI (MCF7 breast) | TGI (786-0 renal)
COc1ccc2c(c1O)-c1c(OC)c(OC)cc3c1[C@H](C2)[N+](C)(C)CC3 | > 100 µM | > 100 µM | > 100 µM | > 100 µM | > 100 µM | > 100 µM | > 100 µM | > 100 µM | > 100 µM | > 100 µM | > 100 µM
c1ccc(COc2ccc(C[P+](c3ccccc3)(c3ccccc3)c3ccccc3)cc2)cc1 | 0.839 µM | 7.28 µM | 12.3 µM | 5.86 µM | 20.2 µM | 5.51 µM | 3.19 µM | 4.97 µM | 1.66 µM | 1.52 µM | 3.57 µM
O=C(CCSC(CC(=O)c1ccc(Cl)cc1)c1ccc(Cl)cc1)Nc1ccc(Cl)cc1 (stereo unspecified) | 22.2 µM | 5.55 µM | 29.6 µM | 26 µM | 57.2 µM | 25.1 µM | 64.1 µM | 28.2 µM | 29.9 µM | 15.3 µM | 27.6 µM
Cc1c(C)c(C)c(-n2c(=O)n(C)c(=O)n2C(C)(C)C)c(C)c1C | > 100 µM | > 100 µM |  | > 100 µM | > 100 µM | > 100 µM | > 100 µM | > 100 µM | > 100 µM | > 100 µM | > 100 µM
C[N+]1(C)CC=C(N2CCOCC2)CC1 | > 10 µM | > 10 µM | > 10 µM | > 10 µM | > 10 µM | > 10 µM | > 10 µM | > 10 µM | > 10 µM | > 10 µM | > 10 µM
COC(=O)OC[C@H]1O[C@@H](n2cc(C)c(=O)[nH]c2=O)CC1OC(=O)OC (stereo partly specified) | > 100 µM | > 100 µM | > 100 µM | > 100 µM |  | > 100 µM | > 100 µM | > 100 µM | > 100 µM | > 100 µM | > 100 µM
COC1/C=C\C=C(/C)C(=O)NC2=CC(=O)C(NCCCl)=C(CC(C)CC(OC)C(O)C(C)/C=C(/C)C1OC(N)=O)C2=O (stereo unspecified) | 20.4 µM | 21.9 µM | 13.6 µM | 12.3 µM | 8.67 µM | 4.55 µM | 58.4 µM | 2.48 µM | 14.3 µM | 2.19 µM | 9.05 µM
COC(=O)C(=O)C(C(=O)C(=O)Nc1ccccc1C(=O)OC)c1nc2ccc(C(=O)c3ccccc3)cc2[nH]c1=O (stereo unspecified) | > 100 µM |  | > 100 µM | > 100 µM | > 100 µM | > 100 µM | > 100 µM | > 100 µM | > 100 µM | > 100 µM | > 100 µM
O=[N+]([O-])/C(C(Cl)=C(Cl)Cl)=C1\Nc2ccccc2O1 | > 100 µM | 38.7 µM | > 100 µM | > 100 µM | > 100 µM | > 100 µM | > 100 µM | > 100 µM | > 100 µM | > 100 µM | 32.1 µM
COc1ccc(-n2c(CCCC(=O)O)nc3c2C(=O)c2ccccc2C3=O)cc1 | > 100 µM | > 100 µM | > 100 µM | > 100 µM | > 100 µM | > 100 µM | > 100 µM | 39 µM | > 100 µM | > 100 µM | > 100 µM
O=C1N[C@H]2c3c(Cl)sc(Cl)c3C(=O)[C@H]2O1 | > 64.8 µM | > 21.2 µM | 14.4 µM | > 57.5 µM | 49.5 µM | 43.2 µM | 43.5 µM | 52.6 µM | > 100 µM | > 100 µM | > 54.2 µM
C=C(NC(=O)C(=C)NC(=O)c1csc(C2=NC3c4csc(n4)C4NC(=O)c5csc(n5)C(C(C)(O)C(C)O)NC(=O)C5CSC(=N5)/C(=C/C)NC(=O)C(C(C)O)NC(=O)c5csc(n5)C3(CC2)NC(=O)C(C)NC(=O)C(=C)NC(=O)C(=C)NC(=O)C(C(C)C)NC2C=Cc3c(C(C)O)cc(nc3C2O)C(=O)OC4C)n1)C(N)=O (stereo unspecified) | 25 µM | 6.8 µM | 58.9 µM | > 100 µM | > 87.2 µM | 16.5 µM | > 100 µM | > 28.5 µM | > 94.8 µM | > 26 µM | 11.3 µM
CC(=O)N[C@@H](Cc1ccc(O)cn1)C(=O)NCc1cccc(F)c1 | > 100 µM | > 100 µM | > 100 µM | > 100 µM | > 100 µM | > 100 µM | > 100 µM | > 100 µM | > 100 µM | > 100 µM | > 100 µM
O=C(C=P(c1ccccc1)(c1ccccc1)c1ccccc1)C12CC3CC(CC(C3)C1)C2 | 38.2 µM | 32.7 µM | 30.8 µM | 29.2 µM | 33.6 µM | 39.9 µM | 37.6 µM | 32.7 µM | 24.4 µM | 35.8 µM | 33.4 µM
COc1c2cc(C(C)(C)C)cc1CSCc1cc(C(C)(C)C)cc(c1OC)CCCCC2 | > 50 µM | > 50 µM | > 50 µM | > 50 µM |  | > 50 µM | > 50 µM | > 50 µM | > 50 µM | > 50 µM | > 50 µM
